Test results from ChEMBL document CHEMBL5360657, “Discovery of the TLR7/8 Antagonist MHV370 for Treatment of Systemic Autoimmune Diseases” (ACS Med Chem Lett, 2023).
pIC50: −log10 of the molar value.

Assays:
[1] = Metabolic stability in rat liver microsomes assessed as intrinsic clearance; assay type: ADME, Microsome; conditions: read-out: CLH
Toll-like receptor 8 = biological target: T1, Toll-like receptor 8 (Homo sapiens, UniProt Q9NR97); assay: Antagonist activity at TLR8 in human PBMC cells […] assessed as reduction in IL-6 level measured after 20 hrs by AlphaLISA assay; assay type: cell-based
T1 sequence (Q9NR97 whole entry): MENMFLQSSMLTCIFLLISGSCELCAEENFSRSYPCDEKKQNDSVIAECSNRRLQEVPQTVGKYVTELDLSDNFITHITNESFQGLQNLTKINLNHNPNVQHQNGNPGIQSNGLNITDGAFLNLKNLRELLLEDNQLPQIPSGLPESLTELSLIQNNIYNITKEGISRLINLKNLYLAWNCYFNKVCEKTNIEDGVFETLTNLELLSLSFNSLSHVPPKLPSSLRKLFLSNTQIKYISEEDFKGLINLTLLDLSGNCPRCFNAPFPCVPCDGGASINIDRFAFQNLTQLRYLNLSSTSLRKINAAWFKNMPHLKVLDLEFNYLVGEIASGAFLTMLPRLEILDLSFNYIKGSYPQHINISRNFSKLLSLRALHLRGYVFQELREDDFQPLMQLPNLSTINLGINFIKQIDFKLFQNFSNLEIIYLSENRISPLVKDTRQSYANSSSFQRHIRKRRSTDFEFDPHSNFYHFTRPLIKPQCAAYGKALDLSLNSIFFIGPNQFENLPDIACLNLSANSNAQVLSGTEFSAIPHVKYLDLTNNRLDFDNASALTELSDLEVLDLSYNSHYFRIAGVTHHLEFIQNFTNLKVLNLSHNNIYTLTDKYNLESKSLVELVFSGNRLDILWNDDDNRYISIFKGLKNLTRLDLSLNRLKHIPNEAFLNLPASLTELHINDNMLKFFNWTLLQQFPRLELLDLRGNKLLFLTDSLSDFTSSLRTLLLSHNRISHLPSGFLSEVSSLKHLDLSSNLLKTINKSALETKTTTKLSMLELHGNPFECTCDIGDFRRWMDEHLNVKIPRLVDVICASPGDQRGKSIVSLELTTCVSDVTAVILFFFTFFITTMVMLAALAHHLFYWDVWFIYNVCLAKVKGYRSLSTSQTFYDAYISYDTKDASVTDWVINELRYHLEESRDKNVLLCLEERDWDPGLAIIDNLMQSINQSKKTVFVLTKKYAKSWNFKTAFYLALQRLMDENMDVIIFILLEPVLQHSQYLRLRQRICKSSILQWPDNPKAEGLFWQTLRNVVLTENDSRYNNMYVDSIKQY

[2] = Metabolic stability in mouse liver microsomes assessed as intrinsic clearance; assay type: ADME, Microsome; conditions: read-out: CLH
Toll-like receptor 9 = biological target: T2, Toll-like receptor 9 (Homo sapiens, UniProt Q9NR96); assay: Antagonist activity at TLR9 in human PBMC cells assessed as reduction in IFN alpha measured after 20 hrs by AlphaLISA assay; assay type: cell-based
T2 sequence (Q9NR96 whole entry): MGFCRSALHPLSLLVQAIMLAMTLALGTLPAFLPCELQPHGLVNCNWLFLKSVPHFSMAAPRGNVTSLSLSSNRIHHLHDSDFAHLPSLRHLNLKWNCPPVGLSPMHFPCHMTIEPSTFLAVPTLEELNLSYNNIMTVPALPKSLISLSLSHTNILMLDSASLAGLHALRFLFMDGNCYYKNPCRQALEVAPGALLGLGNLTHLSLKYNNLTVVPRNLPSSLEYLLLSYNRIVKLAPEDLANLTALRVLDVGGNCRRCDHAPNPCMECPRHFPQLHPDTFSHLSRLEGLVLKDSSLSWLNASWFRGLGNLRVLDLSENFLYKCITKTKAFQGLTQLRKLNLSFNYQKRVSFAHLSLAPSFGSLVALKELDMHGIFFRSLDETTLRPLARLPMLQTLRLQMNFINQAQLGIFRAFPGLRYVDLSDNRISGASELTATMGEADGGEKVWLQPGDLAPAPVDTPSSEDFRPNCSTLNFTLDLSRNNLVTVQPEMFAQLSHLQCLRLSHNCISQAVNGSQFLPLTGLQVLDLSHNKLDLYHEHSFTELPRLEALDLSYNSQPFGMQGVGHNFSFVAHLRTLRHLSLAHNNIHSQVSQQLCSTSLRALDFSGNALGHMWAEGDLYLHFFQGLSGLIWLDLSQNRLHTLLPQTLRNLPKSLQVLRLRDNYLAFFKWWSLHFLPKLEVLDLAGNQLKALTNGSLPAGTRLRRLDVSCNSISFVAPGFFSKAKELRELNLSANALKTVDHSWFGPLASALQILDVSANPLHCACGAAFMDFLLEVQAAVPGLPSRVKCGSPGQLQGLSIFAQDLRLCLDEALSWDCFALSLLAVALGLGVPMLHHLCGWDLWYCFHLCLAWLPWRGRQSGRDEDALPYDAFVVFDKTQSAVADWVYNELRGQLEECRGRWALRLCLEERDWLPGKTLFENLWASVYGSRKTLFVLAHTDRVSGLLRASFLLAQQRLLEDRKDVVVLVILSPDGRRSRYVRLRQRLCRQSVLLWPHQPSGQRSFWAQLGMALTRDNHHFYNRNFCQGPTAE

[3] = Metabolic stability in human liver microsomes assessed as intrinsic clearance; assay type: ADME, Microsome; conditions: read-out: CLH
Cytochrome P450 3A4 [4] = biological target: T3, Cytochrome P450 3A4 (Homo sapiens, UniProt P08684); assay: Inhibition of CYP3A4 (unknown origin); assay type: ADME
Cytochrome P450 3A4 [5] = biological target: T3, Cytochrome P450 3A4; assay: Time dependent inhibition of CYP3A4 (unknown origin) assessed as Kobs; assay type: ADME
[6] = biological target: Voltage-gated inwardly rectifying potassium channel KCNH2 (Homo sapiens, UniProt Q12809); assay: Displacement of [3H]-dofetilite from human ERG (unknown origin); assay type: toxicity
[7] = Permeability of the compound by PAMPA; assay type: ADME
[8] = Solubility of the compound; assay type: physicochemical
Toll-like receptor 7 = biological target: T4, Toll-like receptor 7 (Homo sapiens, UniProt Q9NYK1); assay: Antagonist activity at TLR7 in human PBMC cells assessed as reduction in IFN alpha measured after 20 hrs by AlphaLISA assay; assay type: cell-based
T4 sequence (Q9NYK1 whole entry): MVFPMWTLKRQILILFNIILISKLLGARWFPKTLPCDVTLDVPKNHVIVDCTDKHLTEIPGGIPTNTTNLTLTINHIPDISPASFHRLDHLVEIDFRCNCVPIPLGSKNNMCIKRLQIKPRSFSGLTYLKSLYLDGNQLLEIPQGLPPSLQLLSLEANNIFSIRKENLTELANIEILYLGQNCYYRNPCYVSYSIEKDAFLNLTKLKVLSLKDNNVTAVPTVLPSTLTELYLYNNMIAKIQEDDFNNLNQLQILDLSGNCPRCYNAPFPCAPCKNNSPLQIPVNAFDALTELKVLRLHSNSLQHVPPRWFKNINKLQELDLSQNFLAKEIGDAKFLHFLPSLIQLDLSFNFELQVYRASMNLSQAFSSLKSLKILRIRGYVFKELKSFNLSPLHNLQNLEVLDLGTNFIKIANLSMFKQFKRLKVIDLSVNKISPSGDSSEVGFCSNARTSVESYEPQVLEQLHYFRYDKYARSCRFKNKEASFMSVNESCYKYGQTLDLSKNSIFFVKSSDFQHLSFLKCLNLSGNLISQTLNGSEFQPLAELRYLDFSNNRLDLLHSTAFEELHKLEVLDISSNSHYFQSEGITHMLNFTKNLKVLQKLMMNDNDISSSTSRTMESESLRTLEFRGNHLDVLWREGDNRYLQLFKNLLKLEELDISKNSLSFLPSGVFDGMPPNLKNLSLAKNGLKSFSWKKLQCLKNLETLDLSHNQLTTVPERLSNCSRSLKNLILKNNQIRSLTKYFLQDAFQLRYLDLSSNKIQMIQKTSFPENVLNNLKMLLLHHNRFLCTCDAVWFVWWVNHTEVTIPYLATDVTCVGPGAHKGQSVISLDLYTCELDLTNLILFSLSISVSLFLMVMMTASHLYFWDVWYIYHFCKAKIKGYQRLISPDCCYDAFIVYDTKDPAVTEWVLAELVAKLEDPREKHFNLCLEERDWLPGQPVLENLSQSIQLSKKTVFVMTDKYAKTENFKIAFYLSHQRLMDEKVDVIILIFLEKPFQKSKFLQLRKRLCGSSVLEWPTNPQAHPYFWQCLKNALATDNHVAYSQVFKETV

[9] = Oral bioavailability in rat at 1 mg/ml; assay type: ADME, organism-based; conditions: in vivo
[10] = Cmax in rat at 1 mg/ml, po; assay type: ADME; parameters: dose 1 mg/ml, route po; conditions: in vivo
[11] = AUC in mouse at 1 mg/ml, iv; assay type: ADME; parameters: dose 1 mg/ml, route iv; conditions: in vivo
[12] = Volume of distribution at steady state in mouse at 1 mg/ml, po or iv; assay type: ADME, organism-based; conditions: in vivo
[13] = Cmax in mouse at 1 mg/ml, po; assay type: ADME; parameters: dose 1 mg/ml, route po; conditions: in vivo
[14] = AUC in mouse at 1 mg/ml, po; assay type: ADME; parameters: dose 1 mg/ml, route po; conditions: in vivo
[15] = Oral bioavailability in mouse at 1 mg/ml; assay type: ADME, organism-based; conditions: in vivo
[16] = AUC in rat at 1 mg/ml, iv; assay type: ADME; parameters: dose 1 mg/ml, route iv; conditions: in vivo
[17] = MRT in mouse at 1 mg/ml, po or iv; assay type: ADME, organism-based; conditions: in vivo
[18] = MRT in rat at 1 mg/ml, po or iv; assay type: ADME, organism-based; conditions: in vivo
[19] = Volume of distribution at steady state in rat at 1 mg/ml, po or iv; assay type: ADME, organism-based; conditions: in vivo
[20] = AUC in rat at 1 mg/ml, po; assay type: ADME; parameters: dose 1 mg/ml, route po; conditions: in vivo

Chain of Voltage-gated inwardly rectifying potassium channel KCNH2 (Q12809 whole entry): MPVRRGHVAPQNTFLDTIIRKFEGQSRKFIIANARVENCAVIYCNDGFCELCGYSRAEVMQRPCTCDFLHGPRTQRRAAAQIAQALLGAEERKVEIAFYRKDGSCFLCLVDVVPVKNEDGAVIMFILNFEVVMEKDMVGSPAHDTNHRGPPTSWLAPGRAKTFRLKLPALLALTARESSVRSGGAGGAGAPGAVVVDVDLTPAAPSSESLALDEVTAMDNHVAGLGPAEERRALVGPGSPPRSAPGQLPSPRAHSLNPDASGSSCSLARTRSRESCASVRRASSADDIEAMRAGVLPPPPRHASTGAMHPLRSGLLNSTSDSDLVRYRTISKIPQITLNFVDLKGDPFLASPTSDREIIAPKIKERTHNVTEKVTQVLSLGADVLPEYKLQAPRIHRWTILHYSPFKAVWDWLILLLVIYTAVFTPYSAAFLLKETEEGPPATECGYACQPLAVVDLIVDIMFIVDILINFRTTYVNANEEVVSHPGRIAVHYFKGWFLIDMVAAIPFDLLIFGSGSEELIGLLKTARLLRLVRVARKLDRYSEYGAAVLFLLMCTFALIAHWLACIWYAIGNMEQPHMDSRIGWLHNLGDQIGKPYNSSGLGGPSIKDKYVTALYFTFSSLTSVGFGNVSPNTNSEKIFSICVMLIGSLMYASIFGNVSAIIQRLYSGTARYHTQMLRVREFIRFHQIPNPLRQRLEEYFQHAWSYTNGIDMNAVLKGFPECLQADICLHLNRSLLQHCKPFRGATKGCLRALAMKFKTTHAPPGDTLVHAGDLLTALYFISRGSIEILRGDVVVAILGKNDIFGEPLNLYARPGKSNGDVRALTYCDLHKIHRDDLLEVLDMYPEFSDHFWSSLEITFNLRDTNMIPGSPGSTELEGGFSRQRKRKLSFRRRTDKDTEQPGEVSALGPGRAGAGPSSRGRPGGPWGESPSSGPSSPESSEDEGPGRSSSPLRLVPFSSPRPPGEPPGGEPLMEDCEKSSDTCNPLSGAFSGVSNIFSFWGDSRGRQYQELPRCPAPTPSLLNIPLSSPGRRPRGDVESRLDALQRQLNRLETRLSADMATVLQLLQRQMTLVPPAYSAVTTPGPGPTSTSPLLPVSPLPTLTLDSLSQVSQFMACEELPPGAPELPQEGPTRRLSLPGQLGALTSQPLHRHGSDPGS
T3 sequence (P08684 whole entry): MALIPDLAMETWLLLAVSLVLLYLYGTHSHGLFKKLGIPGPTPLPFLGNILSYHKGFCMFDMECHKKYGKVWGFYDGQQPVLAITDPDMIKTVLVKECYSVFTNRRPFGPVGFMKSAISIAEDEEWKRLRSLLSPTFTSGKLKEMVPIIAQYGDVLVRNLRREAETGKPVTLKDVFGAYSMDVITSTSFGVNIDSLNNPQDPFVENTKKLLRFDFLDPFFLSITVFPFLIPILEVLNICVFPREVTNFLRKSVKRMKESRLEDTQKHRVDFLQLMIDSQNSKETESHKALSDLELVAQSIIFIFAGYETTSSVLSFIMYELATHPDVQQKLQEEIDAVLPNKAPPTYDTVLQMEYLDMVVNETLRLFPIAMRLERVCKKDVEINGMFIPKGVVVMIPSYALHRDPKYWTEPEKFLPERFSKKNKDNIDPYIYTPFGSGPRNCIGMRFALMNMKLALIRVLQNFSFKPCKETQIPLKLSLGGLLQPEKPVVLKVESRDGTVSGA

SMILES | microsomal CLint [1] [µL/min/mg] | pIC50 (Toll-like receptor 8) | microsomal CLint [2] [µL/min/mg] | pIC50 (Toll-like receptor 9) | microsomal CLint [3] [µL/min/mg] | pIC50 (Cytochrome P450 3A4 [4]) | Kobs (Cytochrome P450 3A4 [5]) [min⁻¹] | pIC50 [6] | log(permeability) [7] | solubility [8] [µM] | pIC50 (Toll-like receptor 7) | further results
Cc1cc(N2CCc3c(c(C)nn3CC34CCC(N(C)C)(CC3)CC4)C2)c2cnn(C)c2n1 | 36 | 6.80 | 33 | 6.15 | 34 | < 4.30 | 0.032 | < 4.52 | -4.6 | > 175 | 8.05 | 
Cc1cc(N2CCc3c(c(C)nn3CC34CCC(N5C[C@@H](C)O[C@@H](C)C5)(CC3)CC4)C2)c2cnn(C)c2n1 | 55 | 7.70 | 440 | 5.82 | 130 | < 4.30 | 0.031 | < 4.52 | -3.9 | > 175 | 8.00 | 
CN[C@@H](C)C(=O)NC12CCC(Cn3nc(C)c4c3CCN(c3cc(C)nc5c3cnn5C)C4)(CC1)CC2 | 34 | 6.72 | 42 | 6.15 | < 15 | < 4.30 | 0.022 | < 4.52 | -5.3 |  |  | bioavailability [9]: 9%; Cmax [10]: 31 nM; AUC [11]: 1.79 µM·h; Vdss [12]: 3.5 L/kg; Cmax [13]: 237 nM; AUC [14]: 2.34 µM·h; bioavailability [15]: 26%; AUC [16]: 1.78 µM·h; MRT [17]: 1.6 h; MRT [18]: 1.6 h; Vdss [19]: 2 L/kg; AUC [20]: 0.483 µM·h
CNC12CCC(Cn3nc(C)c4c3CCN(c3cc(C)nc5c3cnn5C)C4)(CC1)CC2 | < 15 | 6.48 | 28 | 6.36 | < 15 | < 4.30 | 0.008 | < 4.52 | -5.3 | > 175 | 8.15 | 
